Measurements as given in BindingDB's records for doi:10.1016/j.ejmech.2017.04.043 (University of Illinois At Chicago, 2017).

Molecular target: T1, Gamma-aminobutyric acid receptor subunit alpha-1/beta-2/gamma-2 (Homo sapiens, UniProt P14867+P18507+P47870)
T1 sequence (P14867 whole entry): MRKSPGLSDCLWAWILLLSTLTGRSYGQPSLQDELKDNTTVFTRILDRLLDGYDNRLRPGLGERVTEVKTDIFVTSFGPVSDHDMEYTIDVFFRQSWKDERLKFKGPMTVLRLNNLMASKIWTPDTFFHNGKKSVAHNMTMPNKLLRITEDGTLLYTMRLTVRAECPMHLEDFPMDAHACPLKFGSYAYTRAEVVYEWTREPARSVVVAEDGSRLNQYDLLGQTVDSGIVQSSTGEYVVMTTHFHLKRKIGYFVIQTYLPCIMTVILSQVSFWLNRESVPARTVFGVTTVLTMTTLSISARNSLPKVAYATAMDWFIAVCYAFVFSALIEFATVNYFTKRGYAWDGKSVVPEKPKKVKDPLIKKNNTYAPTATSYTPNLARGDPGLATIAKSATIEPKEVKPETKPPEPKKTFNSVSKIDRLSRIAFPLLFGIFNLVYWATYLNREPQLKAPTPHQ
T1 sequence (P18507 whole entry): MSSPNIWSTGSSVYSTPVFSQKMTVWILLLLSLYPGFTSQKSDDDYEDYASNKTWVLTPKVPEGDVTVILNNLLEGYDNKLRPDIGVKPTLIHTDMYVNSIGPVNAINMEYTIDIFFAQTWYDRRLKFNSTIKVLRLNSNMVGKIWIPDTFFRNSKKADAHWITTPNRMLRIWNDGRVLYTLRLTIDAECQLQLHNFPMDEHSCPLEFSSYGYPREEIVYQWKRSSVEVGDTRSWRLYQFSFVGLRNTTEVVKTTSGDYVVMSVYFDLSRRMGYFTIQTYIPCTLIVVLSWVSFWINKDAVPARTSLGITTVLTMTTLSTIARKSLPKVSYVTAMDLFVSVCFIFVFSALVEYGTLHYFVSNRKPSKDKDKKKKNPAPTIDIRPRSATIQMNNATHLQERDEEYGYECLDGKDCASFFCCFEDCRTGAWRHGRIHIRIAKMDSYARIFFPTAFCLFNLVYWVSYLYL
T1 sequence (P47870 whole entry): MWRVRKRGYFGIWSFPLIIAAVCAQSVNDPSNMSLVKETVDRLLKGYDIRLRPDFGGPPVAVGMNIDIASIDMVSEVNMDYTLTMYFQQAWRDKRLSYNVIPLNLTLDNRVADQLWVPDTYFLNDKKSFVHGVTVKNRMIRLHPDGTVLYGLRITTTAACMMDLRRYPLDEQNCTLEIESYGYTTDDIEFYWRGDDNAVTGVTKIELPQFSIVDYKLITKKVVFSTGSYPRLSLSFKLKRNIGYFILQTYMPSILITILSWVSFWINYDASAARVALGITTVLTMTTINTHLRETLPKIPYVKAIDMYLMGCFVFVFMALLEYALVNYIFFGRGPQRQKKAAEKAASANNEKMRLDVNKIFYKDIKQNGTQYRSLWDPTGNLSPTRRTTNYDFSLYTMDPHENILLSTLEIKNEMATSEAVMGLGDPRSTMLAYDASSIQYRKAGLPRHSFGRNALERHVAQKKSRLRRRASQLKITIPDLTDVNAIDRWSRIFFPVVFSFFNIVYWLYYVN
Assay: Positive allosteric modulation of human GABAA receptor alpha1beta2gamma2L expressed in Xenopus laevis oocytes assessed as potentiation of GABA-induced current by measuring GABA EC50 at 1.4 uM incubated for 15 to 25 secs by two-electrode voltage clamp assay (Rvb = […])

| Structure (SMILES) | EC50 [µM] |
| --- | --- |
| CC(=O)[C@H]1CC[C@H]2[C@@H]3CC[C@H]4C[C@H](O)CC[C@]4(C)[C@H]3C3(C[C@]12C)N=N3 | 1.23 |
| CC(=O)[C@H]1CC[C@H]2[C@@H]3CC[C@H]4C[C@H](O)CC[C@]4(C)[C@H]3[C@@H](OC(=O)c3c(F)c(F)c(N=[N+]=[N-])c(F)c3F)C[C@]12C | 0.07 |
